Patent publication US20230107642A1 (Erasca, Inc., priority 2020, published 2023)

Biological target: T1, K-Ras G12C (Homo sapiens, UniProt P01116, G12C)
T1 construct: This protein contained 188 amino acids in total, including an N-terminal 6-Histidine tag; made in house; host or cells: E. coli BL21
Experiment: CAF assay (% CAF; method in Example 7, not in this part)
Assay type: binding
Conditions: for % CAF @ 10 μM, 1 h: Table 4; for % CAF @ 10 uM, 1h: 10 uM compound, 1 h incubation

Structure (SMILES) | % CAF @ 10 μM, 1 h | % CAF @ 10 uM, 1h
C=CC(=O)N1CCN(c2nc(=O)n3c4c(c(-c5ccc(F)cc5F)c(C(F)(F)F)cc24)SC[C@@H]3CN2CCN(CC)CC2)[C@@H](C)C1 [Example 350, (3S)-7-((S)-4-acryloyl-2-methylpiperazin-1-yl)-10-(2,4-difluorophenyl)-3-((4-ethylpiperazin-1-yl)methyl)-9-(trifluoromethyl)-2H-[1,4]thiazino[2,3,4-ij]quinazolin-5(3H)-one] | 95% | –
C=CC(=O)N1CCN(c2nc(=O)n3c4c(c(-c5c(F)cc(F)cc5F)c(Cl)cc24)SC[C@@H]3CN2CCN(CC)CC2)[C@@H](C)C1 [Example 351, (S)-7-((S)-4-acryloyl-2-methylpiperazin-1-yl)-9-chloro-3-((4-ethylpiperazin-1-yl)methyl)-10-(2,4,6-trifluorophenyl)-2H-[1,4]thiazino[2,3,4-ij]quinazolin-5(3H)-one] | 74% | –
C=CC(=O)N1CCN(c2nc(=O)n3c4c(c(-c5ccc(F)cc5F)c(C(F)(F)F)cc24)SC[C@@H]3CN2CCN(C3COC3)CC2)[C@@H](C)C1 [Example 352, (3S)-7-((S)-4-acryloyl-2-methylpiperazin-1-yl)-10-(2,4-difluorophenyl)-3-((4-(oxetan-3-yl)piperazin-1-yl)methyl)-9-(trifluoromethyl)-2H-[1,4]thiazino[2,3,4-ij]quinazolin-5(3H)-one] | 96% | –
C=CC(=O)N1CCN(c2nc(=O)n3c4c(c(-c5ccc(F)cc5F)c(C(F)(F)F)cc24)SC[C@@H]3CC2CCN(CC)CC2)[C@@H](C)C1 [Example 353, (3S)-7-((S)-4-acryloyl-2-methylpiperazin-1-yl)-10-(2,4-difluorophenyl)-3-((1-ethylpiperidin-4-yl)methyl)-9-(trifluoromethyl)-2H-[1,4]thiazino[2,3,4-ij]quinazolin-5(3H)-one] | 97% | –
C=CC(=O)N1CCN(c2nc(=O)n3c4c(c(-c5ccc(F)cc5F)c(Cl)cc24)SC[C@@H]3CN2CCN(CC)CC2)[C@@H](C)C1 [Example 354, (3S)-7-((S)-4-acryloyl-2-methylpiperazin-1-yl)-9-chloro-10-(2,4-difluorophenyl)-3-((4-ethylpiperazin-1-yl)methyl)-2H-[1,4]thiazino[2,3,4-ij]quinazolin-5(3H)-one] | 96% | –
C=CC(=O)N1CCN(c2nc(=O)n3c4c(c(-c5ccc(F)cc5F)c(Cl)cc24)SC[C@@H]3CN2CCN(C3COC3)CC2)[C@@H](C)C1 [Example 355, (3S)-7-((S)-4-acryloyl-2-methylpiperazin-1-yl)-9-chloro-10-(2,4-difluorophenyl)-3-((4-(oxetan-3-yl)piperazin-1-yl)methyl)-2H-[1,4]thiazino[2,3,4-ij]quinazolin-5(3H)-one] | 96% | –
C=CC(=O)N1CCN(c2nc(=O)n3c4c(c(-c5ccc(F)cc5F)c(Cl)cc24)SC[C@@H]3CN2CCN(CC(F)F)CC2)[C@@H](C)C1 [Example 356, (3S)-7-((S)-4-acryloyl-2-methylpiperazin-1-yl)-9-chloro-3-((4-(2,2-difluoroethyl)piperazin-1-yl)methyl)-10-(2,4-difluorophenyl)-2H-[1,4]thiazino[2,3,4-ij]quinazolin-5(3H)-one] | 95% | –
C=CC(=O)N1CCN(c2nc(=O)n3c4c(c(-c5c(F)ccc6[nH]ncc56)c(Cl)cc24)SCC3)[C@@H](C)C1 [Example 408, 7-((S)-4-acryloyl-2-methylpiperazin-1-yl)-9-chloro-10-(5-fluoro-1H-indazol-4-yl)-2,3-dihydro-5H-[1,4]thiazino[2,3,4-ij]quinazolin-5-one] | – | 39.3%
C=CC(=O)N1CCN(c2nc(=O)n3c4c(c(-c5cc(F)c(F)cc5F)c(Cl)cc24)SCC3)[C@@H](C)C1 [Example 409, 7-((S)-4-acryloyl-2-methylpiperazin-1-yl)-9-chloro-10-(2,4,5-trifluorophenyl)-2,3-dihydro-5H-[1,4]thiazino[2,3,4-ij]quinazolin-5-one] | – | 94%
C=CC(=O)N1CCN(c2nc(=O)n3c4c(c(-c5ccc(F)cc5)c(Cl)cc24)SC[C@@H]3CN2CCN(CC)CC2)[C@@H](C)C1 [Example 410, (S)-7-((S)-4-acryloyl-2-methylpiperazin-1-yl)-9-chloro-3((4-ethylpiperazin-1-yl)methyl)-10-(4-fluorophenyl)-2H-[1,4]thiazino[2,3,4-ij]quinazolin-5(3H)-one] | – | 83.9%
C=CC(=O)N1CCN(c2nc(=O)n3c4c(c(-c5ccc(F)cc5F)c(Cl)cc24)SC[C@@H]3CN2CCN(C)CC2)[C@@H](C)C1 [Example 411, (3S)-7-((S)-4-acryloyl-2-methylpiperazin-1-yl)-9-chloro-10-(2,4-difluorophenyl)-3-((4-methylpiperazin-1-yl)methyl)-2H-[1,4]thiazino[2,3,4-ij]quinazolin-5(3H)-one] | – | 93.3%
C=CC(=O)N1CCN(c2nc(=O)n3c4c(c(-c5cc(Cl)c(F)cc5F)c(Cl)cc24)SC[C@@H]3CN2CCN(CC)CC2)[C@@H](C)C1 [Example 412, (3S)-7-((S)-4-acryloyl-2-methylpiperazin-1-yl)-9-chloro-10-(5-chloro-2,4-difluorophenyl)-3-((4-ethylpiperazin-1-yl)methyl)-2H-[1,4]thiazino[2,3,4-ij]quinazolin-5(3H)-one] | – | 73.6%
C=CC(=O)N1CCN(c2nc(=O)n3c4c(c(-c5ccc(F)cc5F)c(Cl)cc24)SC[C@@H]3CC2CCN(CC)CC2)[C@@H](C)C1 [Example 413, (3S)-7-((S)-4-acryloyl-2-methylpiperazin-1-yl)-9-chloro-10-(2,4-difluorophenyl)-3-((1-ethylpiperidin-4-yl)methyl)-2H-[1,4]thiazino[2,3,4-ij]quinazolin-5(3H)-one] | – | 86.6%
C=CC(=O)N1CCN(c2nc(=O)n3c4c(c(-c5ccc(F)cc5F)c(Cl)cc24)SC[C@@H]3CC2CCN(CC(F)F)CC2)[C@@H](C)C1 [Example 414, (3S)-7-((S)-4-acryloyl-2-methylpiperazin-1-yl)-9-chloro-3-((1-(2,2-difluoroethyl)piperidin-4-yl)methyl)-10-(2,4-difluorophenyl)-2H-[1,4]thiazino[2,3,4-ij]quinazolin-5(3H)-one] | – | 92%
C=CC(=O)N1CCN(c2nc(=O)n3c4c(c(-c5ccc(F)cc5F)c(Cl)cc24)SC[C@@H]3CC2CCN(C3COC3)CC2)[C@@H](C)C1 [Example 415, (3S)-7-((S)-4-acryloyl-2-methylpiperazin-1-yl)-9-chloro-10-(2,4-difluorophenyl)-3-((1-(oxetan-3-yl)piperidin-4-yl)methyl)-2H-[1,4]thiazino[2,3,4-ij]quinazolin-5(3H)-one] | – | 85.4%
C=CC(=O)N1CCN(c2nc(=O)n3c4c(c(-c5cc(F)c(F)cc5F)c(Cl)cc24)SC[C@@H]3CN2CCN(CC)CC2)[C@@H](C)C1 [Example 416, (3S)-7-((S)-4-acryloyl-2-methylpiperazin-1-yl)-9-chloro-3-((4-ethylpiperazin-1-yl)methyl)-10-(2,4,5-trifluorophenyl)-2H-[1,4]thiazino[2,3,4-ij]quinazolin-5(3H)-one] | – | 91.2%
C=CC(=O)N1C2CN(c3nc(=O)n4c5c(c(-c6ccc(F)cc6F)c(C(F)(F)F)cc35)SCC4)CC1CC1(COC1)C2 [Example 417, 7-(9-acryloyl-7,9-diazaspiro[bicyclo[3.3.1]nonane-3,3′-oxetan]-7-yl)-10-(2,4-difluorophenyl)-9-(trifluoromethyl)-2,3-dihydro-5H-[1,4]thiazino[2,3,4-ij]quinazolin-5-one] | – | 2%
C=C(F)C(=O)N1C2CC(=O)CC1CN(c1nc(=O)n3c4c(c(-c5ccc(F)cc5F)c(C(F)(F)F)cc14)SCC3)C2 [Example 418, 10-(2,4-difluorophenyl)-7-(9-(2-fluoroacryloyl)-7-oxo-3,9-diazabicyclo[3.3.1]nonan-3-yl)-9-(trifluoromethyl)-2,3-dihydro-5H-[1,4]thiazino[2,3,4-ij]quinazolin-5-one] | – | 58%
C=CC(=O)N1CCN(c2nc(=O)n3c4c(c(-c5ccc(F)c6[nH]ncc56)c(Cl)cc24)SCC3)[C@@H](C)C1 [Example 419, 7-((S)-4-acryloyl-2-methylpiperazin-1-yl)-9-chloro-10-(7-fluoro-1H-indazol-4-yl)-2,3-dihydro-5H-[1,4]thiazino[2,3,4-ij]quinazolin-5-one] | – | 54.3%
CN(C)C/C=C/C(=O)N1C2CC(=O)CC1CN(c1nc(=O)n3c4c(c(-c5ccc(F)cc5F)c(C(F)(F)F)cc14)SCC3)C2 [Example 420, (E)-10-(2,4-difluorophenyl)-7-(9-(4-(dimethylamino)but-2-enoyl)-7-oxo-3,9-diazabicyclo[3.3.1]nonan-3-yl)-9-(trifluoromethyl)-2,3-dihydro-5H-[1,4]thiazino[2,3,4-ij]quinazolin-5-one] | – | 93%
C=CC(=O)N1CCN(c2nc(=O)n3c4c(c(-c5cc(F)c(F)cc5F)c(Cl)cc24)SC[C@@H]3CC2CCN(C3COC3)CC2)[C@@H](C)C1 [Example 421, (3S)-7-((S)-4-acryloyl-2-methylpiperazin-1-yl)-9-chloro-3-((1-(oxetan-3-yl)piperidin-4-yl)methyl)-10-(2,4,5-trifluorophenyl)-2H-[1,4]thiazino[2,3,4-ij]quinazolin-5(3H)-one] | – | 85.1%
C=CC(=O)N1CCN(c2nc(=O)n3c4c(c(-c5ccc(F)cc5F)c(Cl)cc24)SC[C@@H]3CN2CCN(C3CC3)CC2)[C@@H](C)C1 [Example 422, (3S)-7-((S)-4-acryloyl-2-methylpiperazin-1-yl)-9-chloro-3((4-cyclopropylpiperazin-1-yl)methyl)-10-(2,4-difluorophenyl)-2H-[1,4]thiazino[2,3,4-ij]quinazolin-5(3H)-one] | – | 84.2%
